According to US8617906B2, “Identification and screening of triptolide target molecules” (priority 2004, dated 2013):

Assays:
Vimentin (PG778) = molecular target: T1, Vimentin (PG778) (Homo sapiens, UniProt P08670); assay: Isolation of proteins binding 3H-triptolide in Jurkat cells; settings: 3H-labeled Jurkat cell extract
T1 construct: endogenous in cells; host or cells: Jurkat
Procedure: (§1) Triptolide target molecules were isolated and identified by purification and identification of molecules that bind ^3H-triptolide. Jurkat cells from expanding cultures were labeled with ^3H-triptolide by cultivation at 37° C. with 5% CO2 for a period of time between a few hours and overnight (usually 6-7 hours) and harvested by centrifugation and washing in ice-cold phosphate buffered saline. The cells (usually 1-3×10^6/ml) were generally labeled with ^3H-triptolide to a final concentration of 35 nM (100 μCi/200 ml of medium). Collected cell pellets were pooled, and the cells were either extracted and subjected to separation and purification at that time, or were frozen and stored at −20° C. as pellets for extraction and investigation at a later time.
(§2) The cells were extracted with M-per buffer (Pierce) and homogenized in presence of a protease inhibitor cocktail, sometimes including other reagents such as deoxyribonuclease (DNase). […] When the extracts components were found not to be sufficiently purified, enriched or reduced in number, 2D gel electrophoresis was employed, followed by fluorography for ^3H-associated radioactivity detection, and MALDI/MS of the corresponding peptides (after proteolysis) and peptide fingerprinting. […]

[1] = molecular target: T2, Human Serine/Threonine Protein Phosphatase 2A 130 KDa regulatory subunit, PP2A (PG789) (Homo sapiens, UniProt Q06190); assay: as above; settings: 3H-labeled Jurkat cell extract
T2 construct: endogenous in cells; host or cells: Jurkat
Procedure: as §1, §2

[2] = test system: human T cell lymphoma (Jurkat) cells; settings: cited from earlier work
NF-κB = settings: cited from earlier work
[3] = molecular target: T3, Thioredoxin Reductase (PG774) (Homo sapiens, UniProt Q16881); assay: Isolation of proteins binding 3H-triptolide in Jurkat cells; settings: 3H-labeled compound incubated with Jurkat cells
T3 construct: endogenous in cells; host or cells: Jurkat
Procedure: as §1, §2

[4] = molecular target: T4, Protein Disulfide Isomerase (PG775) (Homo sapiens, UniProt P07237); assay: as above; settings: 3H-labeled compound incubated with Jurkat cells
T4 construct: endogenous in cells; host or cells: Jurkat
Procedure: as §1, §2

[5] = test system: Phosphatidyl Inositol 3 Kinase—Class II (PG776); assay: as above; set-up: species or system human; settings: 3H-labeled Jurkat cell extract
Procedure: as §1, §2

microglia = settings: cited from earlier work
[6] = molecular target: T5, Eukaryotic Translation Elongation Factor 2 (EEF2) (PG786) (Homo sapiens, UniProt P13639); assay: Isolation of proteins binding 3H-triptolide in Jurkat cells; settings: 3H-labeled Jurkat cell extract
T5 construct: endogenous in cells; host or cells: Jurkat
Procedure: as §1, §2

T3 sequence (Q16881 151-649 limits assumed): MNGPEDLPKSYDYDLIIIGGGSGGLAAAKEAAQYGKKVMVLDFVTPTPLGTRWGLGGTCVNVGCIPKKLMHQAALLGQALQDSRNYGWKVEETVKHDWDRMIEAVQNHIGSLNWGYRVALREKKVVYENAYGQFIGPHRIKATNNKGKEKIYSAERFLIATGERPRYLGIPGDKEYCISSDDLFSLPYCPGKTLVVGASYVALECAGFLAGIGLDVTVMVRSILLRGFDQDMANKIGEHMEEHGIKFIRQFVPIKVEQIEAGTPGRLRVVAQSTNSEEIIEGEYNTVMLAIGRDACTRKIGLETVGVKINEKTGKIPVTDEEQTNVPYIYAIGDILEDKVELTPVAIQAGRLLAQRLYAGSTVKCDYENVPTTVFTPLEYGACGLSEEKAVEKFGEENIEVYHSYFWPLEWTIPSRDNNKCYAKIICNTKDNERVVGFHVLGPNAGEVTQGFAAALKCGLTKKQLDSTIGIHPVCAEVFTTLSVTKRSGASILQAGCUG
T1 sequence (P08670 whole entry): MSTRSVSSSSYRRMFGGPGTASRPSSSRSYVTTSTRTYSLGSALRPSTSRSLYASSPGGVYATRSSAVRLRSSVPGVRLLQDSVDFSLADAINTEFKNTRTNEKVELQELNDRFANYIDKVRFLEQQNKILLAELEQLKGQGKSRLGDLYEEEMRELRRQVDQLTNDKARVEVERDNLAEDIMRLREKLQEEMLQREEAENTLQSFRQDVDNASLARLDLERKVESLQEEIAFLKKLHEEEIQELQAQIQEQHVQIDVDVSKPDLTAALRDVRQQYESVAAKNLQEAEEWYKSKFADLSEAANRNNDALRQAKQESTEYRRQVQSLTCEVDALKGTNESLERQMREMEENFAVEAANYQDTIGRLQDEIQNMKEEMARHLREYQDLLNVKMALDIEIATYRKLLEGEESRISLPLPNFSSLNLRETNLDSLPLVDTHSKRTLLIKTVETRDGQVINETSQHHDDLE
T2 sequence (Q06190 whole entry): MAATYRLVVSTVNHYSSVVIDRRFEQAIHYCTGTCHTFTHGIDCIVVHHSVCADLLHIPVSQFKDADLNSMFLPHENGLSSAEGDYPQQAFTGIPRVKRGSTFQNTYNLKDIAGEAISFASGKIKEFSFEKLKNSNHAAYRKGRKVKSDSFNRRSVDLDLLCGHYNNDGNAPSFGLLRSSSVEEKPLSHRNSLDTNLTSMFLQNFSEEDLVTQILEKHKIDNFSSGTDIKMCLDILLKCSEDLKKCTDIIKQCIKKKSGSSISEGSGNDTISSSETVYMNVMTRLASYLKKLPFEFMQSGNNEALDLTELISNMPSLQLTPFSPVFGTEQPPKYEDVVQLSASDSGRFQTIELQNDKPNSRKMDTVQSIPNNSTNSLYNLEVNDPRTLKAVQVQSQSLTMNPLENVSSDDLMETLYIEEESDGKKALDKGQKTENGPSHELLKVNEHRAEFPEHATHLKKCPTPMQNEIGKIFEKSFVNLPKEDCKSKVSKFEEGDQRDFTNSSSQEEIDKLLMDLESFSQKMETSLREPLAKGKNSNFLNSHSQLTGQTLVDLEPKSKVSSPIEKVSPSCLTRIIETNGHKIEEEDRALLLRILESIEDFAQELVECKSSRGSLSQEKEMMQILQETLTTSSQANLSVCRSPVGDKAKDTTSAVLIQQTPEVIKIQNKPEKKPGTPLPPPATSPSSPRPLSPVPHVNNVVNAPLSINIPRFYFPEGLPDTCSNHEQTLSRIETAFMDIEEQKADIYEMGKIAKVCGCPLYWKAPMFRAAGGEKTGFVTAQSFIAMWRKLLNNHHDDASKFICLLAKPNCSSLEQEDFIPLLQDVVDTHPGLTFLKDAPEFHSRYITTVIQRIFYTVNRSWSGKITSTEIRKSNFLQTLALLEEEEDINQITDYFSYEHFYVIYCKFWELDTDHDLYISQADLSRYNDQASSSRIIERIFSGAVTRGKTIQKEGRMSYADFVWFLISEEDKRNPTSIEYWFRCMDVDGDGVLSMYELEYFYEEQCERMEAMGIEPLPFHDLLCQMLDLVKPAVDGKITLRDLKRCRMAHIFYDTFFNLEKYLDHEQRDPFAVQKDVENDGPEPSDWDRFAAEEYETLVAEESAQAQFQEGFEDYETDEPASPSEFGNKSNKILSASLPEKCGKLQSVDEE
T4 sequence (P07237 18-508): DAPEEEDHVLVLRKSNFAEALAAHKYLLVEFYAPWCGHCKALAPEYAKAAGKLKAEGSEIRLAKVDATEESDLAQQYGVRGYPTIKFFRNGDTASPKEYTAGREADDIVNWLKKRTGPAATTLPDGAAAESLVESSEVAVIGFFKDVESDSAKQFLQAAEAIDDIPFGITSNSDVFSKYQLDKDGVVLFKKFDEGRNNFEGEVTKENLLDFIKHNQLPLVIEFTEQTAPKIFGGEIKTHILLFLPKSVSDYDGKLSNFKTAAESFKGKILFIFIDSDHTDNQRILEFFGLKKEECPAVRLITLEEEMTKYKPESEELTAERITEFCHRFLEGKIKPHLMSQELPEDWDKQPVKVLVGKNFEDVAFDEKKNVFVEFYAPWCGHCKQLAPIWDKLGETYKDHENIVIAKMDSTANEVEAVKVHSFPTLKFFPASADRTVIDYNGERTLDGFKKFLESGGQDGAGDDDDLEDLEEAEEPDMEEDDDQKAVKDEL

## CC(C)[C@]12O[C@H]1[C@@H]1O[C@]13[C@]1(O[C@H]1C[C@H]1C4=C(CC[C@@]13C)C(=O)OC4)[C@@H]2O [triptolide]
Vimentin (PG778)
  3H-associated protein identified as triptolide target: Vimentin: identification
[1]
  3H-associated protein identified as triptolide target: PP2A 130 KDa regulatory subunit: identified
[2]
  cytotoxicity: cytotoxicity in human T cell lymphoma (Jurkat) cells
NF-κB
  NF-κB activation: inhibit NF-κB activation
[3]
  3H-associated protein identified as triptolide target: Thioredoxin Reductase: identified
[4]
  3H-associated protein identified as triptolide target: Protein Disulfide Isomerase: identified
[5]
  3H-associated protein identified as triptolide target: PI 3 Kinase Class II: identification
microglia
  LPS-activated microglial activity (nitrite accumulation, TNF-α and IL-1β release): powerful inhibitory influence
[6]
  3H-associated protein identified as triptolide target: EEF2: identified
